Data: patent US6071896A, “Suppression of thromboxane levels by percutaneous administration of aspirin” (Gundersen Clinic, Ltd., priority 1998, dated 2000)
“Also recorded” adds a separate entry of the source.

Legend:
[1] = Hemoccults, gastrointestinal symptoms and side effects, Example 1; format: in vivo, human; conditions: 5 volunteers, topical aspirin
From the text: Five healthy adult volunteers (3 male, 2 female) were studied. Each refrained from ingesting oral aspirin for two weeks prior to study. Prior to treatment in accordance with the present invention, baseline thromboxane levels and hemoccults were obtained.
After base levels of thromboxane had been measured, the aspirin solution was first applied on the morning of Day 1 to the skin of the human subjects within an hour of mixing by rubbing the aspirin solution on the arms and/or chest of the subject. The application was repeated with freshly prepared solution for each of four additional mornings (Days 2-5) in the same manner. Between applications the subjects followed their normal schedule of bathing and showering. Eight hours after the fifth application (on Day 5) blood was drawn for salicylate levels and thromboxane levels to be determined. With one subject, blood was drawn for TXA2 levels every day just before application of a new aspirin solution (i.e., approximately 24 hours after application of the previous aspirin solution). Hemoccults were also tested.

thromboxane synthesis = conditions: cited from earlier work
[2] = test system: TX-M excretion (TXA2 biosynthesis); assay: Urinary TX-M excretion before and after dermal or oral aspirin, Example 3; format: in vivo, human; parameters: TX-M post ASA: unit not given beside the values
Method: (§1) In an additional 4 subjects, we examined the increase in PGI2 formation in response to intravenous bradykinin prior to and following oral aspirin 75 mg or dermal aspirin 750 mg daily for 14 days. The protocol for bradykinin has been described previously [Clark, N.Engl.J.Med 325:1137 (1991)]. Volunteers were admitted after an overnight fast to the Clinical Research Center. Blood samples were obtained for serum TXB2 and the subject asked to void. Through a peripheral vein, 1 liter of normal saline was infused over 1 hour. After a further hour, bradykinin was infused in incremental doses of 100-800 ng/kg/min, each over 15 mm. The infusion was continued at the maximum tolerated dose for a total period of 2 hr. Blood pressure and heart rate were monitored continuously. Urine was collected in separate 2 hr aliquots prior to, during and following the bradykinin infusion.
(§2) ^1 The excretion of TXM and PGIM before and following dermal aspirin
(§3) 750 mg/day or oral aspirin 75 mg/day for 10 days. Urine samples were
(§4) collected over 2 hr before (rest) and following the administration of […]

PGI2 synthesis = conditions: cited from earlier work
[3] = test system: PGI2 formation in response to intravenous bradykinin; assay: Urinary PGI-M excretion at rest and after bradykinin infusion, Example 3; format: in vivo, human; conditions: for PGI-M (stim) post ASA: bradykinin-stimulated
Method: as §1, §2, §3, §4

platelet cyclooxygenase = assay: Serum TXB2 during and after dermal aspirin (index of platelet cyclooxygenase); format: in vivo, human
From the text: In studying the effects of the methods of the present invention platelet cyclooxygenase activity was used as a measure of aspirin bioavailability, in addition to plasma drug levels. […] Inhibition of urinary TX-M followed a similar pattern. TX-M is a major enzymatic metabolite of TXB2 and its excretion is an index of TXA2 biosynthesis in vivo. In contrast, the vehicle alone had no effect on serum TXB2 or urinary TX-M. Following withdrawal of therapy, serum TXB2 and TX-M recovered gradually over a period of days. This is consistent with inhibition of platelet cyclooxygenase in vivo. As the enzyme is inhibited irreversibly, recovery of platelet TXA2 biosynthesis parallels the formation of new platelets, a process that has a half-life of 5 days.
(§5) Only healthy male and female volunteers were studied. The subjects were asked to avoid aspirin and any other cyclooxygenase inhibitors for the 10 days before and throughout the period of investigation. Aspirin (acetyl salicylic acid, USP) powder was dissolved in propylene glycol and either isopropyl alcohol or ethanol (1.7:1 v/v) to a final concentration of 94 mg/ml. […] The aspirin preparation was made daily immediately prior to its application Volunteers attended the clinic where the preparation was applied and were asked not to wash the area for at least 12 hours. The aspirin solution was applied to the forearm and upper arm over a 15 min interval. Volunteers received aspirin 250 mg (n=4), aspirin 750 mg (n=6) or vehicle (n=6) for 10 days and were followed for 8 days following drug withdrawal. The volunteers were aged 31-56 years, with equal numbers of male and females in each treatment group.
(§6) Blood without anticoagulant was obtained for serum TXB2, the stable metabolite of TXA2, prior to and at intervals during and following aspirin administration. The blood was allowed to clot in glass at 37° C. for 60 min and the serum removed and stored at -20° C. until analyzed. Urine was collected over 24 hours at corresponding times for measurement of 2,3-dinor-TXB2 (TX-M) and 2,3-dinor-6-keto-PGF1a (PGI-M), major enzymatic metabolites of TXA2 and PGI2, respectively [Lawson et al., Analyt. Biochem. 150:463 (1985); FitzGerald et al., N. Engl. J. Med. 310: 1065 (1984)]. Excretion of these products is an index of the in vivo formation of their parent compounds [FitzGerald et al., supra; Reilly and Fitzgerald, Blood 69: 180 (1987)]. Serum TXB2 and urinary metabolites were determined by negative ion-chemical ionization, gas chromatography-mass spectrometry (NICI-GCMS) using authentic deuterated standards, as previously described [Braden et al., supra].

PGI2 biosynthesis = assay: Urinary 2,3-dinor-6-keto-PGF1a (PGI-M) excretion, dermal aspirin, Example 2; format: in vivo, human; conditions: for Urinary PGI-M excretion, peak decrease (day 4): p=0.074 by ANOVA (not significant)
Method: as §5, §6

TXA2 biosynthesis = assay: Urinary 2,3-dinor-TXB2 (TX-M) excretion, dermal aspirin, Example 2; format: in vivo, human
Method: as §5, §6

gastric mucosa = conditions: cited from earlier work
[4] = highest dose of dermal aspirin (750 mg/day)
[5] = patients with rheumatic diseases

Question: What does the source list for CC(=O)Oc1ccccc1C(=O)O [aspirin, acetyl salicylic acid]?
Answer: Gastrointestinal symptoms or other side effects [1]: No gastrointestinal symptoms or other side effects were noted or reported; Hemoccults [1]: negative; Thromboxane-B2 synthesis in vitro and urinary 2,3-dinor-thromboxane-B2 (thromboxane synthesis; approximately 40 mg/day): inhibit thromboxane-B2 synthesis in vitro and to reduce the urinary excretion of 2,3-dinor-thromboxane-B2; TXA2 and PGI2 synthesis (thromboxane synthesis; approximately 1,000 mg/day): inhibits both TXA2 and PGI2 synthesis; Maternal and neonatal thromboxane (thromboxane synthesis; low doses, women at risk for pregnancy-induced hypertension): selectively suppress maternal thromboxane levels, but only partially suppressed neonatal thromboxane; TX-M post ASA ([2]; Dermal aspirin 750 mg/day, PT 1, pre ASA 220): 46; TX-M post ASA ([2]; Dermal aspirin 750 mg/day, PT 2, pre ASA 121): 29; TX-M post ASA ([2]; Oral aspirin 75 mg/day, PT 1, pre ASA 136): 26; TX-M post ASA ([2]; Oral aspirin 75 mg/day, PT 2, pre ASA 111): 43; Urinary TX-M ([2]; dermal aspirin 750 mg/day): marked fall in urinary TX-M; also recorded: suppressed TXM; Urinary TX-M ([2]; oral aspirin 75 mg/day): marked fall in urinary TX-M; Inhibition of PGI2 synthesis, arterial and venous tissue (PGI2 synthesis; 20 mg/day for 1 week, atherosclerotic patients): 50%; Urinary PGI2 metabolites / prostacyclin biosynthesis (PGI2 synthesis; approximately 40 mg/day): no significant effect on prostacyclin biosynthesis; Reduction of PGI2 synthesis, arterial and venous tissue (PGI2 synthesis; equally low doses (about 40 mg/day)): 50%; Bradykinin-stimulated PGI2 formation (PGI2 synthesis; oral aspirin 75 mg/day): abolished; PGI-M (rest) post ASA ([3]; Dermal aspirin 750 mg/day, PT 1, pre ASA 163): 138; PGI-M (rest) post ASA ([3]; Dermal aspirin 750 mg/day, PT 2, pre ASA 105): 149; PGI-M (rest) post ASA ([3]; Oral aspirin 75 mg/day, PT 1, pre ASA 104): 63; PGI-M (rest) post ASA ([3]; Oral aspirin 75 mg/day, PT 2, pre ASA 200): 96; PGI-M (stim) post ASA ([3]; Dermal aspirin 750 mg/day, PT 1, pre ASA 1520): 1553; PGI-M (stim) post ASA ([3]; Dermal aspirin 750 mg/day, PT 2, pre ASA 559): 601; PGI-M (stim) post ASA ([3]; Oral aspirin 75 mg/day, PT 1, pre ASA 433): 173; PGI-M (stim) post ASA ([3]; Oral aspirin 75 mg/day, PT 2, pre ASA 340): 132; Resting and bradykinin-stimulated PGI-M excretion ([3]; dermal aspirin 750 mg/day): PGI2 formation in response to bradykinin infusion was also unaltered; also recorded: largely unaltered; also recorded: had not effect on; Resting and bradykinin-stimulated PGI-M excretion ([3]; oral aspirin 75 mg/day): suppressed basal and bradykinin-stimulated PGI-M excretion; also recorded: decrease in urinary PGI-M at rest and following stimulation with bradykinin; Inhibition of platelet cyclooxygenase (platelet cyclooxygenase; aspirin absorbed through the skin): marked and selective inhibition of platelet cyclooxygenase; Serum TXB2 recovery, day 8 after withdrawal (platelet cyclooxygenase; dermal aspirin 250 mg/day): 93±7 % of baseline; Serum TXB2 (fall in), day 10 (platelet cyclooxygenase; dermal aspirin 250 mg/day, n=4, p<0.01): 55±11%; Serum TXB2 recovery, day 8 after withdrawal (platelet cyclooxygenase; dermal aspirin 750 mg/day): 65±9 % of baseline; Serum TXB2 response (platelet cyclooxygenase; dermal aspirin 750 mg/day, n=6): progressive reduction in serum TXB2 in all but one of the volunteers; Serum TXB2, day 10 of application (platelet cyclooxygenase; dermal aspirin 750 mg/day, n=5 (one non-responder excluded), p=0.003): 5±3 % of baseline; Decrease in serum TXB2 in the subjects of Example 4 (platelet cyclooxygenase; dermal aspirin, subjects selected for pharmacokinetics): > 90%; Maximum inhibition of platelet cyclooxygenase, as measured by serum TXB2 (platelet cyclooxygenase; dermal, highest dose, 10 days): exceeded 95%; PGI2 biosynthesis based on urinary PGI-M (PGI2 biosynthesis; dermal aspirin): little inhibition of basal or stimulated PGI2 formation; also recorded: only a small fall in PGI2 biosynthesis; Urinary PGI-M excretion, peak decrease (day 4) (PGI2 biosynthesis; dermal aspirin 250 mg/day, baseline 402±139 pg/mg creatinine): 84±4 % of baseline; Urinary PGI-M excretion, peak decrease (day 4) (PGI2 biosynthesis; dermal aspirin 750 mg/day, baseline 248±73 pg/mg creatinine): 76±7 % of baseline; Decrease in basal PGI-M excretion by day 4 (PGI2 biosynthesis; [4]): 24%; PGI-M excretion by day 10 (PGI2 biosynthesis; [4]): 83 % of baseline; Urinary TX-M excretion, 8 days following drug withdrawal (TXA2 biosynthesis; dermal aspirin 750 mg/day): 65±9 % of pretreatment value; Urinary TX-M excretion, day 10 (TXA2 biosynthesis; dermal aspirin 750 mg/day, n=5, p=0.002, baseline 498±76 pg/mg creatinine): 32±7 % of baseline; Urinary TX-M excretion response (TXA2 biosynthesis; dermal aspirin 250 and 750 mg/day): dose dependent reduction in the urinary excretion of TX-M; Gastric mucosa damage, occult bleeding (gastric mucosa; applied topically to gastrointestinal tissue): damages gastric mucosa and induces occult gastrointestinal bleeding; Effects on gastric mucosa (gastric mucosa; intravenous/parenteral vs oral): less pronounced with parenteral than with oral administration; Bleeding (gastric mucosa; oral diluted solutions vs similar doses in tablet form): considerably less bleeding than similar doses in tablet form; Erythema of the gastric mucosa (gastric mucosa; [5]): approximately 80 % of patients; Gastric erosions (gastric mucosa; [5]): approximately 40 % of patients; Gastric ulcer (gastric mucosa; [5]): 15 % of patients
